This is an account of results in patent US20130183696A1, “METHODS OF USE AND KIT FOR MEASUREMENT OF LIPOPOLYSACCHARIDE WITH A TIME RESOLVED FLUORESCENCE BASED ASSAY” (priority 2010, published 2013).

For data set [1] the following is noted: cited from earlier work.
The target in data set [2] is T1, recombinant rat A1 adenosine receptor (Rattus norvegicus, UniProt P25099).
T1 construct: purchased PerkinElmer, Waltham, Mass; host or cells: CHO cells (membranes)
T1 sequence (P25099 1-326): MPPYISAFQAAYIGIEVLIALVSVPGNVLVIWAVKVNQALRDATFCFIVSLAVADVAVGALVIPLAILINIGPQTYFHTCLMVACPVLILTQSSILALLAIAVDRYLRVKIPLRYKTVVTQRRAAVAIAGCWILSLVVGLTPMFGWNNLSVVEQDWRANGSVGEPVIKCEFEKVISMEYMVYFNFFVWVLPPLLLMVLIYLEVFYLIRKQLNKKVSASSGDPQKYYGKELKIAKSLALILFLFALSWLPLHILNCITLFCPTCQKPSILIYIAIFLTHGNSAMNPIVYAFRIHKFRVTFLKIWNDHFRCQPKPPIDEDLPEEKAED
Put plainly: A1 adenosine receptor TRF Eu-GTP binding assay, standard curve for LPS. It counts as biochemical. The following applies: CHO cell membranes, Eu-GTP 10 nM, % basal activity; mean of 8-10 independent assays, LPS 10 pg/mL-100 ng/mL. On the procedure:
To generate a standard LPS/endotoxin standard curve membranes prepared from CHO cells (1 unit/well corresponding to approximately 20 μg of protein per well; PerkinElmer, Waltham, Mass.) expressing the recombinant rat A1 adenosine receptor are preincubated in an Acrowell filter plate (Pall Life Sciences, Ann Arbor, Mich.) in the presence of LPS/endotoxin (USP, Rockville, Md.) (0.01-750 ng/mL). The endotoxin stock solution is prepared by dissolving 10,000 endotoxin units (corresponding to 1000 ng) in 333 μL of endotoxin free water. […] Each assay point is evaluated in triplicate. […] Fluorescence in each well is determined with an Infinite F-200 PRO (Tecan, Grodig, Austria) using fluorescent top read with an excitation wavelength of 320 nm, emission wavelength of 620 nm, and gain setting of 109. Eu-GTP basal activity is calculated as the difference between total Eu-GTP bound and nonspecific Eu-GTP bound. Percent (%) basal is calculated as follows: [(test condition−nonspecific)/(basal activity)]*100. […] The standard curve is analyzed by nonlinear regression (GraphPad Prism, version 5, GraphPad Software, La Jolla, Calif.) using a sigmoidal dose-response curve with variable slope to determine EC50. Each standard curve represents a minimum of three independent experiments and final data are expressed as the mean±SEM. […]

As to “drotrecogin alfa [Xigris, drotrecogin alfa [activated]]”, in data set [1] (in vivo), the adverse side effect entry was “serious adverse side effect of bleeding”. Further, the “reduction of absolute mortality compared to placebo” value in data set [1] (sepsis patients, definitive large clinical trials (Bernard et al., 2001)) is recorded as 6%.

For lipopolysaccharide [LPS], in data set [2], the “sensitivity of the assay for LPS” value is reported as 10 pg/mL.
